{"source": "patent US20260216229A1", "about": "“PROGRAMMABLE DNA PROTEOLYSIS TARGET CHIMERAS AND METHODS OF THEIR USE” (ARIZONA BOARD OF REGENTS ON BEHALF OF ARIZONA STATE …, priority 2023, published 2026)", "molecular_target": "T1, CDK6 (Homo sapiens, UniProt Q00534)", "T1 construct": "Western blot analysis of CDK6 degradation in U251 cells treated with distance-based DNA-PROTACs; endogenous in cells; host or cells: U-251 MG (U251) glioblastoma cells", "T1 sequence (Q00534 whole entry)": "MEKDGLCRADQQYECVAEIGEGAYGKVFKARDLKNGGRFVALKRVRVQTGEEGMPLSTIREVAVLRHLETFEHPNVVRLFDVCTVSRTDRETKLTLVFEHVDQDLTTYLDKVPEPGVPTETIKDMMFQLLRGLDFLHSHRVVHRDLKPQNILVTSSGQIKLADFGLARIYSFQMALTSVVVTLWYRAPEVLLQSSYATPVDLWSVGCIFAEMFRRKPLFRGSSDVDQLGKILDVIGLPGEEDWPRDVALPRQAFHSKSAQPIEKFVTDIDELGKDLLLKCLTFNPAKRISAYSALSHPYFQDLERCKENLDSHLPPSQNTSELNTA", "assay": "Western blot of CDK6 degradation in U251 cells transfected with DNA-PROTACs", "assay_type": "cell-based", "conditions": "for CDK6 protein degradation (Western blot): 14-hour treatment", "experimental": "U-251 MG Glioblastoma Cell Line was grown in Dulbecco's Modified Eagles Medium (DMEM) containing 10% heat inactivated fetal bovine serum (FBS), streptomycin (5 μg/mL) and 5 U/mL penicillin 95 U/mL). All cell lines were maintained, and cell culture experiments were carried out in humidified incubators at 37° C. and 5% CO2 supplementation.\nOne day prior to DNA-PROTACs transfection, cells were propagated into 6 cm cell culture dishes containing appropriate complete growth medium. Prior to transfection, complete medium was replaced with transfection medium (5% FBS, no Penstrep). DNA-PROTACs transfection was performed using lipofectamine 3000 reagent according to the protocols provided by the manufacture. All transfections were carried out in 6-cm dishes with 3 mL of media and concentrations of DNA-PROTACs were calculated according to this volume (3 mL). Briefly, for 50 nM concentration, 5 μL from a 30 µM DNA-PROTACs stock and 12 μL p3000 reagent was added to a tube containing 125 μL of OPTIM-MEM and 8 μL of Lipofectamine 3000 reagent was added to a separate tube containing 125 μL of OPTIM-MEM. Two tubes were incubated for 5 minutes at room temperature and DNA-PROTACs containing OPTI-MEM was then slowly added to the second tube with lipo3000. The solution in the tube was mixed well by pipetting up and down several times. After incubating for 15-20 minutes at room temperature, 250 μL of DNA-PROTACs-lipofectamine complex was added drop wise onto cells containing the transfection medium. Transfection medium was mixed well before transferring the plate into the incubator. After appropriate time, cells were either harvested or replaced with fresh medium and incubated for desired time point prior to harvesting. For proteasome inhibition assay, 5 μM of MG-132 was incubated with cells for 2 h prior to transfection of DNA-PROTACs. Then, cells were incubated for another 12 h before lysing cells. Cell lysates were prepared by incubating cells in RIPA lysis buffer (25 mM Tris pH 7.6, 150 mM NaCl, 1% NP40, 1% deoxycholate, 0.1% SDS, 1× protease inhibitor cocktail from Roche and 1 mM of PMSF) on ice for 30 minutes and cell lysate was clarified by centrifugation at high speed (15 000 rpm) for 15 minutes. Clear supernatant was collected for further experiments.\nProtein concentration in all the cell lysates were measured by BCA protein assay kit and equal amounts from each lysate were mixed with 4×loading dye and boiled for 5 minutes followed by 2 minutes centrifugation prior to loading into SDS-PAGE gel. Next proteins on the SDS-PAGE gel were transferred to a Nitrocellulose membrane by western blotting and the membrane was blocked with 5% milk in TBST (0.05% Tween 20) for 1 h. Primary antibodies (all Abcam antibodies were diluted 1:5000) were prepared in TBST with 2.5% milk and membranes were incubated overnight at 4° C. On the following day, membrane was washes for 15 minutes (Incubate for three times, 5 minutes each) and appropriate secondary antibodies (1:5000) were prepared in TBST and incubated with the membrane for 1 h at room temperature (RT). Membrane was washed for 15 minutes with TBST (incubate for three times, […]) prior to imaging.\nThe degradation efficiency of various DNA-PROTACs was evaluated through their transfection into U251 cells, conducted simultaneously to ensure uniform experimental conditions. A double-stranded DNA sequence without any ligand was utilized as a negative control, providing a baseline for comparison. Following a 14-hour treatment period, a duration selected based on preliminary time-course studies, the cells were harvested using trypsin digestion. The lysates obtained were then subjected to SDS-PAGE, followed by Western blot analysis to assess protein degradation. […] This finding highlights the efficacy of DNA-PROTAC V02 in targeting and reducing CDK6 protein levels. In comparison, DNA-PROTAC Versions 03 and 04 also facilitated protein degradation, albeit with varying degrees of efficiency. […]"}
{"molecule": "Version 03: DNA duplex of E3-i strand SEQ ID NO 3 and POI-i strand SEQ ID NO 5 (chain 1 ACTCCATCTANTTCTACGCCA; chain 2 TGGCGTAGAATAGANTGGAGT; E3 and POI ligands conjugated; modified_base 1 OTHER; Nucleotide with phosphorothioate linkage; modified_base 2 OTHER; modified_base 3 OTHER; misc_difference 11 E3 ligase attached to 3-Dimethoxytrityloxy-2-(3-(fluorenylmethoxycarbonylamino)propanamido)propyl-1-O-(2-cyanoethyl)-(N,N-diisopropyl)-phosphoramidite modified adenosine, cytidine, thymi; m)", "values": [{"measurement": "CDK6 protein degradation (Western blot)", "setting": "100 nM", "result": "substantially reduce CDK6 protein levels"}]}
{"molecule": "CC(=O)c1c(C)c2cnc(Nc3ccc(N4CCN(CCOCCOCCOCCNC(=O)COc5cccc6c5C(=O)N(C5CCC(=O)NC5=O)C6=O)CC4)cn3)nc2n(C2CCCC2)c1=O", "note": "(centres unmarked) [BSJ-03-123, reference compound]", "values": [{"measurement": "CDK6 protein levels (Western blot)", "setting": "160 nM treatment", "result": "discernible reduction in protein levels"}]}
{"molecule": "A-minor-01: angular-series DNA duplex of E3-i strand SEQ ID NO 3 and POI-i strand SEQ ID NO 21 (chain 1 ACTCCATCTANTTCTACGCCA; chain 2 TGGCGTAGAATAGNATGGAGT; E3 and POI ligands conjugated; modified_base 1 OTHER; Nucleotide with phosphorothioate linkage; modified_base 2 OTHER; modified_base 3 OTHER; misc_difference 11 E3 ligase attached to 3-Dimethoxytrityloxy-2-(3-(fluorenylmethoxycarbonylamino)propanamido)propyl-1-O-(2-cyanoethyl)-(N,N-diisopropyl)-phosphoramidite modified adenosine, cytidine, thymi; m)", "values": [{"measurement": "CDK6 protein degradation (Western blot)", "setting": "100 nM", "result": "substantial degradation"}]}
{"molecule": "Version 04: DNA duplex of E3-i strand SEQ ID NO 3 and POI-i strand SEQ ID NO 6 (chain 1 ACTCCATCTANTTCTACGCCA; chain 2 TGGCNGTAGAATAGATGGAGT; E3 and POI ligands conjugated; modified_base 1 OTHER; Nucleotide with phosphorothioate linkage; modified_base 2 OTHER; modified_base 3 OTHER; misc_difference 11 E3 ligase attached to 3-Dimethoxytrityloxy-2-(3-(fluorenylmethoxycarbonylamino)propanamido)propyl-1-O-(2-cyanoethyl)-(N,N-diisopropyl)-phosphoramidite modified adenosine, cytidine, thymi; m)", "values": [{"measurement": "CDK6 protein degradation (Western blot)", "setting": "50 nM", "result": "more pronounced reduction in protein levels"}]}
{"molecule": "A-minor-00: angular-series DNA duplex of E3-i strand SEQ ID NO 3 and POI-i strand SEQ ID NO 5 (chain 1 ACTCCATCTANTTCTACGCCA; chain 2 TGGCGTAGAATAGANTGGAGT; pomalidomide and POI ligand conjugated; modified_base 1 OTHER; Nucleotide with phosphorothioate linkage; modified_base 2 OTHER; modified_base 3 OTHER; misc_difference 11 E3 ligase attached to 3-Dimethoxytrityloxy-2-(3-(fluorenylmethoxycarbonylamino)propanamido)propyl-1-O-(2-cyanoethyl)-(N,N-diisopropyl)-phosphoramidite modified adenosine, cytidine, thymi; m)", "values": [{"measurement": "CDK6 protein degradation (Western blot)", "setting": "concentration not given", "result": "marginal CDK6 degradation"}]}
{"molecule": "Version 05: DNA duplex of E3-i strand SEQ ID NO 18 and POI-i strand SEQ ID NO 20; largest ligand distance of approximately 60.2 Å (chain 1 ANCTCCATCTATTCTACGCCA; chain 2 TNGGCGTAGAATAGATGGAGT; E3 and POI ligands conjugated; modified_base 1 OTHER; Nucleotide with phosphorothioate linkage; misc_difference 2 E3 ligase attached to 3-Dimethoxytrityloxy-2-(3-(fluorenylmethoxycarbonylamino)propanamido)propyl-1-O-(2-cyanoethyl)-(N,N-diisopropyl)-phosphoramidite modified adenosine, cytidine, thymidine, guanosine, unknown or other nucleotide with phosphorothioate linkage; modified_base 3 OTHER; Nucleotide with phosphorothioate; misc_difference 2 Protein of interest attached to 3-Dimethoxytrityloxy-2-(3-(fluorenylmethoxycarbonylamino)propanamido)propyl-1-O-()", "values": [{"measurement": "CDK6 protein degradation (Western blot)", "setting": "50 nM and 100 nM, vs ligand-free dsDNA control", "result": "did not exhibit any discernible protein degradation"}]}
{"molecule": "A-minor-03: angular-series DNA duplex of E3-i strand SEQ ID NO 3 and POI-i strand SEQ ID NO 23 (chain 1 ACTCCATCTANTTCTACGCCA; chain 2 TGGCGTAGAATNAGATGGAGT; E3 and POI ligands conjugated; modified_base 1 OTHER; Nucleotide with phosphorothioate linkage; modified_base 2 OTHER; modified_base 3 OTHER; misc_difference 11 E3 ligase attached to 3-Dimethoxytrityloxy-2-(3-(fluorenylmethoxycarbonylamino)propanamido)propyl-1-O-(2-cyanoethyl)-(N,N-diisopropyl)-phosphoramidite modified adenosine, cytidine, thymi; m)", "values": [{"measurement": "concentration at which significant CDK6 degradation begins", "setting": "14 hours, angular series", "result": 20, "unit": "nM"}]}
{"molecule": "A-minor-02: angular-series DNA duplex of E3-i strand SEQ ID NO 3 and POI-i strand SEQ ID NO 22 (chain 1 ACTCCATCTANTTCTACGCCA; chain 2 TGGCGTAGAATANGATGGAGT; E3 and POI ligands conjugated; modified_base 1 OTHER; Nucleotide with phosphorothioate linkage; modified_base 2 OTHER; modified_base 3 OTHER; misc_difference 11 E3 ligase attached to 3-Dimethoxytrityloxy-2-(3-(fluorenylmethoxycarbonylamino)propanamido)propyl-1-O-(2-cyanoethyl)-(N,N-diisopropyl)-phosphoramidite modified adenosine, cytidine, thymi; m)", "values": [{"measurement": "CDK6 protein degradation (Western blot)", "setting": "100 nM", "result": "substantial degradation"}]}
